Results reported in patent US20140162974A1, “METHODS FOR MODULATION OF PHOSPHORUS AND FGF23” (Luitpold Pharmaceuticals, Inc., priority 2012, published 2014).

Legend:
[1] = Acute toxicity relative to iron sucrose; conditions: in vivo
From the text: (§1) FCM can mimic physiologically occurring ferritin. FCM is metabolized by the glycolytic pathway.

[2] = Intra-arterial, perivenous, or intravenous tolerance studies; format: in vivo, rabbit; conditions: intra-arterial
dextran antibodies = experiment: Dextran antigenicity test
From the text: as §1

[3] = VIT-30 safety: composite cardiovascular endpoint and adverse events; format: in vivo
Description: (§2) Study visits were on Days 0, 3, 7, 10, 14, 28, 56, and 120. A phone assessment occurred on Day 90.
The Venofer Group received 5 doses of Venofer, 200 mg for a total dose of 1,000 mg.
For Venofer, subjects received, as an IV push injection over 2 to 5 minutes, 200 mg on Days 0, 7, and 14 with 2 additional doses given: 1 between Days 0 and 7 and the other between Days 7 and 14 (i.e., for a total of 5 doses [1,000 mg]).
For safety, the primary measure was the proportion of subjects experiencing treatment-emergent adverse event included in the primary composite safety endpoint. Treatment-emergent events included events that started on or after the first dose of randomized treatment. The composite safety endpoint included: deaths due to any cause; nonfatal myocardial infarction; nonfatal stroke; unstable angina requiring hospitalization; congestive heart failure requiring hospitalization or medical intervention; arrhythmias; protocol-defined hypertensive events; and protocol-defined hypotensive events. These events were adjudicated in a blinded fashion. Supportive safety measures included: proportion of subjects who died (all cause mortality); time to first event comprising the primary composite safety endpoint; proportion of subjects reporting treatment-emergent adverse events, overall and related; proportion of subjects reporting treatment-emergent serious adverse events, overall and related; incidence of treatment-emergent potentially clinically significant (PCS) clinical laboratory values; and incidence of treatment-emergent PCS vital sign values.
The Safety Population consisted of all subjects who received a dose of randomized treatment. All safety analyses were performed with the Safety Population.
Safety assessments were summarized for the Safety Population unless stated otherwise. Subjects were analyzed under the treatment actually received.
The precision of the estimated treatment group difference was measured by the width of the 95% CI.
The number and percent of subjects who reported treatment-emergent adverse events were summarized for each treatment group. A treatment-emergent adverse event was an event that began after receipt of randomized treatment.
The adverse event profile was characterized with severity (as graded by Version 3.0 of the NCI CTCAE) and relationship (unrelated and related) to study drug. Related adverse events were events that were possibly or probably related to treatment in the Investigator's judgment. Events with unknown severity or relationship were counted as unknown.
The number and percent of subjects who reported treatment-emergent serious adverse events were similarly summarized for each treatment group. The number and percent of subjects who reported treatment-emergent adverse events resulting in discontinuation of study drug were similarly summarized for each treatment group.
Time to the first adverse event comprising the primary composite safety endpoint was summarized with the Kaplan-Meier approach. […] The log-rank statistic were used to compare time-to-event curves between treatment groups and a 95% CI of the hazard ratio was calculated with a Cox proportional hazards model.

serum phosphate = experiment: VIT-30: serum phosphate; format: in vivo, human
From the text: (§3) FIG. 1 is a line and scatter plot showing mean changes in phosphate (left vertical axis) or changes in FGF-23 (right vertical axis) with respect to baseline value at each study day (0, 7, 14, 28, or 56) as indicated on the Horizontal (X) axis for trial VIT30. […] Further details regarding methodology are provided in Example 2.
as §2
Clinical laboratory variables were presented in 2 ways. First, change from baseline to Day 7, Day 14, Day 28, and Day 56 were summarized. Baseline was defined as the last value obtained prior to the first injection of study drug. Second, the number and proportion of subjects with treatment-emergent PCS laboratory values were tabulated. Treatment-emergent PCS values were those in which the baseline value was normal and post-baseline value was abnormal (i.e., met Grade 3 or Grade 4 toxicity criteria from the National Cancer Institute Common Toxicity Criteria for Adverse Events, Version 3.0 [NCI CTCAE]).
For serum phosphate and platelet count, change from baseline to the smallest value after baseline and final value were also summarized. For subjects whose baseline value was above the lower reference range and who had at least 1 value below the lower reference range after baseline, the following were summarized: the number of days from baseline to the first value below the lower reference range and the number of days from the first value below the lower reference range until the first succeeding value within the reference range.

FGF-23 = experiment: VIT-30: FGF-23; format: in vivo, human
From the text: as §3, §2
For quantitative baseline characteristics, the association with FGF-23 at Screening was evaluated with Pearson product moment and Spearman correlations. For qualitative baseline characteristics, the association with FGF-23 at Screening was evaluated with mean differences in FGF-23 among categories of the baseline characteristic.
Descriptive statistics for FGF-23 at Screening (mean, median, standard deviation, quartiles, minimum, and maximum) were summarized for subgroups.

[4] = Days 7, 14, 28, 56, trial VIT30

polynuclear iron (III)-hydroxide 4(R)-(poly-(1→4)-O-α-glucopyranosyl)-oxy-2(R),3(S),5(R),6-tetrahydroxy-hexanoate [FCM]
acute toxicity relative to iron sucrose [1]: one-fifth
treatment-related local tissue irritation [2]: No treatment-related local tissue irritation was observed
specific responses in a dextran antigenicity test (dextran antibodies): no specific responses
tolerability ([3]; 2 injections of 750 mg): well tolerated
subjects who discontinued the study or study drug subsequent to a protocol-defined hypertensive event ([3]; 10 subjects): 10.5%
hazard ratio (FCM versus Venofer) excluding protocol-defined hypertensive and hypotensive events ([3]; Cox proportional hazards): 1.017
hazard ratio (FCM versus Venofer) for death due to any cause, nonfatal myocardial infarction, or nonfatal stroke ([3]; Cox proportional hazards): 0.685
protocol-defined hypertensive events ([3]; component of primary composite safety endpoint): 7.45%
drug related treatment emergent adverse event: dizziness ([3]; in vivo): 2.4%
drug related treatment emergent adverse event: flushing ([3]; in vivo): 3.0%
drug related treatment emergent adverse event: hypertension ([3]; in vivo): 4.6%
drug related treatment emergent adverse event: nausea ([3]; in vivo): 8.6%
drug related treatment emergent adverse event: vomiting ([3]; in vivo): 2.0%
serious adverse event: cardiac failure congestive ([3]; in vivo): 2.4%
subjects prematurely discontinued from study drug due to adverse events ([3]; in vivo): 2.6%
subjects with Grade 3 treatment emergent adverse events ([3]; in vivo): 12.9%
subjects with Grade 4 treatment emergent adverse events ([3]; in vivo): 4.7%
subjects with Grade 5 (fatal) treatment emergent adverse events ([3]; in vivo): 1.2%
subjects with adjudicated events of death due to any cause, nonfatal myocardial infarction, or nonfatal stroke ([3]; in vivo): 1.88%
subjects with adverse event that resulted in discontinuation from the study ([3]; in vivo): 2.4%
subjects with at least 1 serious adverse event ([3]; in vivo): 15.8%
subjects with at least 1 treatment emergent adverse event ([3]; in vivo): 65.4%
treatment emergent adverse event: hypertension ([3]; in vivo): 10.7%
treatment emergent adverse event: nausea ([3]; in vivo): 13.5%
subjects with at least 1 drug related treatment emergent adverse event ([3]; possibly or probably related): 23.4%
mean changes in phosphate with respect to baseline (FIG. 1) (serum phosphate; [4]): decreased with respect to baseline values
incidence of serum phosphate<2.0 mg/dL (serum phosphate; chronic kidney disease trial of 2500 patients, 120 days of follow-up (see Example 2)): 18.5%
proportion of subjects with PCS low phosphorus (serum phosphate; treatment-emergent potentially clinically significant value): 18.5%
changes in FGF-23 with respect to baseline (FIG. 1) (FGF-23; [4]): almost always decreases with respect to baseline (except for FCM on Day 14)
FGF 23 change from baseline to Day 56 within group (FGF-23; in vivo): statistically significant decrease
